Experimental data reported in patent publication US5688936A, “Vesicle membrane transport proteins” (priority 1993, dated 1997).
Entries after “also recorded” stand apart in the source; their conditions may differ.

How the values were obtained:
[1] = molecular target: T1, chromaffin granule amine transport protein (Rattus norvegicus, UniProt Q01818); assay: cell-based; format: cell-based
T1 sequence (Q01818 1-521): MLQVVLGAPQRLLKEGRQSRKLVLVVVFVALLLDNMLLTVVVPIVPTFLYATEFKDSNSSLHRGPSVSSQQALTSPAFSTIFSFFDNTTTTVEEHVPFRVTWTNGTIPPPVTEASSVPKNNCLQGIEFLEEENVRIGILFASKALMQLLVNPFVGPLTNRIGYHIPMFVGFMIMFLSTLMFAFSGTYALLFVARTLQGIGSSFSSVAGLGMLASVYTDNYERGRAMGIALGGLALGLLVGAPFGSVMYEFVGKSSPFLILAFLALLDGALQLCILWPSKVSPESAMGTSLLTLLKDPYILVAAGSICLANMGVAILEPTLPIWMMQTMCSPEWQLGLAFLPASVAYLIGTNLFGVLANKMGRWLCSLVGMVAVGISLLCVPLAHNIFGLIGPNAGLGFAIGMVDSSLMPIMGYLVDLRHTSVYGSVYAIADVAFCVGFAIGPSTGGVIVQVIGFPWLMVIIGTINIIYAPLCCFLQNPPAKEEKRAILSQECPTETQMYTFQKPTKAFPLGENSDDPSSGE
Experimental: Uptake and cellular compartmentalization of loaded dopamine were performed by growing cells on poly-lysine-coated glass coverslips. […] The cells were then washed three times in 0.1M sodium phosphate, pH 7.4, and incubated at 4° C. in 2% glyoxylic acid/0.5 mg% MgCl2, pH 4.9-5.0 for three minutes as described by de la Torre, J. Neurosci. Meth. 3:1-5 (1980). Briefly, excess solution is wiped off the bottom and edges of the slide using absorbent paper, taking care not to touch the section. The coverslips were then drained thoroughly, dried in air at 45° C. heated to 80° C. for five minutes, inverted over mineral oil on glass slides and examined under fluorescence using the appropriate filters as described by Knigge et al., Brain Res. 120:393-405 (1977). Briefly, the preparations were infiltrated with warm immersion oil and examined in a Leitz MPV2 microspectrofluorometer equipped with Schoffel excitation and emission grating monochromators, photomultipliers, and ratio computing circuitry. Cells were scanned with either monochromatic light (370 nm) or narrow band excitation (S405, BG3) light for the purpose of identifying fluorescence within cells. Ploem illumination was used in combination with a X 63 or X 100 oil immersion objective.
Dopamine-loaded fluorescence was carried out as described in Example 1. […] Glyoxylic-acid-induced fluorescence was used to determine the intracellular distribution as described above in Example 1. The procedures were the same as described in Example 1 however a pure cDNA clone encoding the vesicle membrane transport protein, selected in the presence of MPP^+, obtained as described herein, was used rather than the primary transformant. […]
The effects of various pharmacologic agents were tested to determine whether the properties of the protein encoded by the mpp^res cDNA corresponded with those expected for the chromaffin granule amine transport protein. […] The cells were pre-incubated in Krebs-Ringer buffer containing 1 μM pargyline and the dose of the drug indicated for 15 minutes. 25 nM [^3 H]-dopamine was then added in the same buffer and after incubation at 37° C. for one hour, the cells were washed in cold Krebs-Ringer buffer, lysed and counted in Ecolite (ICN) as described by Greene and Rein, Brain Res. 129:247-263 (1978). Values were determined from three separate wells and the mean was expressed as percent of control uptake±standard deviation. […] The dose required to inhibit maximal uptake by 50%, Ki, was estimated from the fluorescence data using a range of concentrations for each agent.

wild-type CHO cells = assay: MTT cytotoxicity assay in wild-type CHO cells; format: cell-based, Chinese hamster; details: wild-type CHO, lower MPP+ concentrations
Experimental: Differential susceptibility to the respiratory complex I inhibitors MPP^+ and rotenone was shown by measuring toxicity by measuring general cell dehydrogenase activity with reduction of a tetrazolium dye (MTT) in a spectrophotometric plate assay as described by Hansen et al., J. Immunol. Methods 119:203-210 (1989). Briefly, a stock solution of MTT (3,(4,5-dimethylthiazol-2-yl)2,5-diphenyltetrazolium bromide) was dissolved at a concentration of 5 mg/ml in sterile phosphate buffered saline at room temperature. To each well was added 25 μl of the stock solution. After two hours of incubation at 37° C., 100 μl of extraction buffer (20% w/v of SDS in a solution of 50% each dimethylformamide and demineralized water with the pH adjusted to 4.7 with acetic acid and HCl). After an overnight incubation at 37° C., the optical densities at 570 nm were measured using a multiscanner, employing the extraction buffer as the blank. This assay was carried out in triplicate on 96-well plates (NUNC, Denmark). MPP^+ and rotenone at the concentrations indicated in FIG. 6a and 6b, respectively, was added to wild-type and MPP^+ -resistant CHO cells at approximately 50% confluence, and toxicity was assayed after 2-3 days by measuring general cell dehydrogenase activity with the reduction of the tetrazolium dye MTT (3,(4,5-dimethylthiazol-2-yl)2,5-diphenyl-tetrazolium bromide). After addition of the dye at a final concentration of 1 mg/ml, the cells were incubated for two hours at 37° C. and the formazan product was solubilized in 10% sodium dodecyl sulfate (SDS). The plates were maintained at 37° C. for an additional twenty hours and the optical density was determined in an ELISA plate reader at a test wavelength of 570 nm, a reference wavelength of 630 nm and a calibration setting of 1.99. All determinations were performed in triplicate and expressed as the mean, with the error bars representing standard deviation (FIG. 6a and 6b).

[2] = molecular target: T1, chromaffin granule amine transport protein; assay: Quantitative [3H]dopamine transport assay with mpp^res CHO cell homogenate; format: biochemical; details: dose-response, 2-minute incubation (FIG. 15C)
Experimental: The quantity of label bound is measured after filtration of the assay mixture. Preferably, the label is a radioactive label. […] This can be done by standard graphic kinetic techniques such as the Lineweaver-Burke plot.
Incubation was performed at 29° C. for the time period indicated (from 2 minutes to 30 minutes). The assay was terminated by dilution in cold assay buffer followed by filtration through 0.2 μm Supor™ 200 membranes (Gelman, Ann Arbor, Mich.) and the bound radioactivity was measured. The cells used for the quantitative assay are selected in MPP^+ or screened with antibody to ensure that they express the transporter at high levels, as it is difficult to measure activity in this assay at low levels of transporter expression.
The quantitative transport test was performed as described above on wild-type CHO cells and mpp^res CHO cells.

[3] = system: bacterial BMR transporter; details: cited from earlier work

Structure (SMILES): COC(=O)[C@H]1[C@H]2C[C@@H]3c4[nH]c5cc(OC)ccc5c4CCN3C[C@H]2C[C@@H](OC(=O)c2cc(OC)c(OC)c(OC)c2)[C@@H]1OC [reserpine]
- inhibition of vesicular dopamine uptake in the fluorescence assay ([1]; 50 nM): inhibit vesicular dopamine uptake completely
- perinuclear and particulate cytoplasmic dopamine staining of MPP+-resistant CHO cells ([1]; 1 μM): inhibited
- Dopamine Fluorescence (mpp^res CHO) ([1]; agent 1 μM, untreated control ++++, 12 hour dopamine loading): 0
- Ki ([1]; dose required to inhibit maximal uptake by 50%, estimated from fluorescence data, read-out: Ki (est)): 25 nM
- pattern of catecholamine accumulation in the MPP+-resistant transfectant ([1]; reserpine concentration not stated): reversion to the wild-type pattern of catecholamine accumulation; also recorded: reversed
- effect on MPP+ toxicity in wild-type cells (wild-type CHO cells): very little reproducible effect
- inhibition of dopamine transport [2]: inhibition by both reserpine and tetrabenazine
- inhibition of bacterial BMR transporter [3]: inhibits
